Key:
Format in all cases: cell-based, human
MCF-7 cells = experiment: Cell cycle analysis by DNA flow cytometry; details: IC50 concentration; for %G0-G1 / %G2/M / %S / %Sub-G1: 24 h
Protocol: Anticancer agents exert their cytotoxic action by aborting cellular proliferation at certain checkpoints. These checkpoints are distinguishable phases in the cell cycle, whose suppression results in termination of the cell proliferation.
The influence of bis-indoles 7e and 9a on cell cycle progression was examined in breast cancer MCF-7 cells, after 24 h of treatment, through DNA flow cytometric assay by the use of BD FACS Caliber flow cytometer, as described previously. The cell cycle distributions were calculated using CellQuest software (Becton Dickinson). […]
The two examined human breast cancer cell lines (MCF-7 and Breast MDA-MB-231), and non-tumorigenic human breast epithelial cell line (MCF-10A) have been obtained from American Type Culture Collection (ATCC). The cells were maintained in Dulbecco's modified Eagle's medium (DMEM) supplemented with 10% heat inactivated fetal calf serum (GIBCO), penicillin (100 U/ml) and streptomycin (100 µg/ml) at 37 °C in humidified atmosphere containing 5% CO2. Cells at a concentration of 0.50 x 106 were grown in a 25 cm2 flask in 5 ml of culture medium. […]
Breast cancer MCF-7 cells were treated with bis-indoles 7e and 9a for 24 h (at their IC50 concentration), and then cells were washed twice with ice-cold phosphate buffered saline (PBS). Subsequently, the treated cells were collected by centrifugation, fixed in ice-cold 70% (v/v) ethanol, washed with PBS, re-suspended with 100 μg/mL RNase, stained with 40 μg/mL PI, and analyzed by flow cytometry using FACS Calibur (Becton Dickinson, BD, Franklin Lakes, NJ, USA). The cell cycle distributions were calculated using CellQuest software 5.1 (Becton Dickinson).

caspase-3 = experiment: ELISA immunoassay, active caspase-3 level; details: for increase of caspase-3 level vs control: MCF-7 cells; for Caspase-3: active caspase-3, MCF-7 cells, IC50 concentration, 48 h
Protocol: Moreover, their effect on the level of caspase-3; the executioner caspase and p53 was evaluated in the MCF-7 cell line. […] In addition, they augmented the level of p53 by 15.4- and 11.75-fold, respectively in comparison to the control (Table 5, Figure 3).
(§1) Effects of treatment of breast cancer MCF-7 cells with bis-indoles 7e and 9a on the expression levels of the pro-apoptotic markers (Bax, caspase-3, and p53) in addition to the anti-apoptotic protein Bcl-2 marker was assessed by the use of ELISA colorimetric kits as per the manufacturer’s instructions, as described earlier.
(§2) The levels of the pro-apoptotic markers (Bax, caspase-3 and p53) as well as the anti-apoptotic marker Bcl-2 were determined using ELISA colorimetric kits per the manufacturer’s instructions. Breast cancer MCF-7 cells were cultured as a monolayer in T-25 flasks and were seeded to attain 30% confluency prior to treatment. Cells were […]
(§3) At the end of treatment, cells were collected via trypsinization and centrifuged at 10,000 rpm. The pellet was then rinsed with PBS and lysed in RIPA lysis buffer at 4 °C for 45 min, then centrifuged at 14,000 rpm for 20 min to remove the cellular debris. Lysates were then collected and stored at −80 °C for later protein determination using Pierce BCA Protein Assay Kit according to manufacturer’s recommendations.
(§4) The cell lysate was diluted 10 times, and 100 μL ([…]) was added to the wells of four separate microtiter plates for the four ELISA kits that were pre-coated with primary antibodies specific to Bax, Bcl-2, caspase-3 and p53 proteins, respectively. A secondary biotin-linked antibody specific to the protein captured by the primary antibody was further added to bind the captured protein, forming a “sandwich” of specific antibodies around the desired protein in the cell lysate. The streptavidin-HRP complex was then used to bind the biotin-linked secondary antibody through its streptavidin portion. The HRP domain reacted with the added TMB substrate to form a colored product that measured at 450 nm by a plate reader ChroMate-4300 after the reaction was terminated via the addition of stop solution. […]

MDA-MB-231 cells = experiment: SRB antiproliferative assay, MDA-MB-231; details: for IC50: Homo sapiens, MDA-MB-231, 48 h, MDA-MB-231 triple-negative breast cancer cells, SRB assay, 48 h, mean ± S.D. of three experiments
Protocol: 1. Anti-proliferative action toward human breast cell lines […]
and non-tumorigenic human breast epithelial cell line (MCF-10A) have been obtained from American Type Culture Collection (ATCC). The cells were maintained in Dulbecco's modified Eagle's medium (DMEM) supplemented with 10% heat inactivated fetal calf serum (GIBCO), penicillin (100 U/ml) and streptomycin (100 µg/ml) at 37 °C in humidified atmosphere containing 5% CO2. […]
grown in a 25 cm2 flask in 5 ml of culture medium.
The anti-proliferative activity of the tested compounds was measured in vitro using the Sulfo-Rhodamine-B stain (SRB) assay. Briefly, Cells were inoculated in 96-well microtiter plate (5X104 cells/ well) for 24 h before treatment with the tested compounds to allow attachment of cell to the wall of the plate. Tested compounds were dissolved in DMSO at 1 mg/ml immediately before use and diluted to the appropriate volume just before addition to the cell culture. Different concentrations of tested compounds, doxorubicin and sorafenib were added to the cells (three wells were prepared for each […]
atmosphere of 5% CO2. After 48 h cells were fixed, washed, and stained for 30 min with 0.4% (w/v) SRB dissolved in 1% acetic acid. Unbound dye was removed by four washes with 1% acetic acid, and attached stain was recovered with Tris-EDTA buffer. Color intensity was measured in an ELISA reader. The relation between percent of surviving fraction and drug concentration is plotted to get the survival curve for each cell line. […]

Bcl-2 = experiment: ELISA immunoassay, Bcl-2 level; details: MCF-7 cells; for Bcl-2: IC50 concentration, 48 h
From the text: Synchronization of the mitochondrial pathway is headed by the Bcl-2 family of proteins. These proteins are classified into two groups: anti-apoptotic proteins exemplified by Bcl-2 protein and the counteracting pro-apoptotic proteins including Bax protein [21]. As induction of the apoptotic machinery is one of the most useful strategies in cancer therapy, we investigated the effect of our compounds to boost the pro-apoptotic protein; Bax and reduce the anti-apoptotic protein; Bcl-2 in an attempt to explore the underlying mechanism for their cytotoxic activity (Table 1). […] Fortunately, both compounds markedly boosted the level of Bax by 8.3- and 6.4-fold, respectively (Table 4, Figure 3).
as §1, §2, §3, §4

Structure (SMILES) | augmentation of proportion of cells in G2/M phase vs control (MCF-7 cells) | augmentation of proportion of cells in Sub-G1 phase vs control (MCF-7 cells) | %G0-G1 (MCF-7 cells) | %G2/M (MCF-7 cells) | %S (MCF-7 cells) | %Sub-G1 (MCF-7 cells) | increase of caspase-3 level vs control (caspase-3) | Caspase-3 (caspase-3) | IC50 (MDA-MB-231 cells) | potency relative to Staurosporine, MDA-MB-231 (MDA-MB-231 cells; ratio of IC50 values, MDA-MB-231 cells) | decrease of Bcl-2 level vs control (Bcl-2) | Bcl-2 (Bcl-2)
O=C(Cc1c[nH]c2ccccc12)NN=C1C(=O)Nc2ccc([N+](=O)[O-])cc21 [Compound 7e, 2-(1H-Indol-3-yl)-N′-(5-nitro-2-oxoindolin-3-ylidene)acetohydrazide] | 3 fold | 18.77 fold | 31.66% | 42.9% | 25.44% | 33.61% | 11.7 fold | 409.2 ± 17.2 pg/mg | 1.32 ± 0.03 µM | 7.8 times | 2.25 fold | 2.07 ± 0.14 ng/mg of Total Protein
C=CCN1C(=O)C(=NNC(=O)Cc2c[nH]c3ccccc23)c2ccccc21 [Compound 9a, N′-(1-Allyl-2-oxoindolin-3-ylidene)-2-(1H-indol-3-yl)acetohydrazide] | 2.21 fold | 13.42 fold | 43.82% | 31.27% | 24.91% | 24.02% | 9.5 fold | 331.0 ± 12.5 pg/mg | 18.2 ± 0.62 µM |  | 1.74 fold | 2.67 ± 0.16 ng/mg of Total Protein

Reference: article PMC7230731 (Marine Drugs, 2020)
